Assay results as given in US20230242993A1, “METHOD FOR SCREENING MARKERS FOR PREDICTING PROGNOSIS OF RENAL CELL CARCINOMA USING TRANSCRIPTOMIC ANALYSIS” (Gwangju Institute of Science and Technology, priority 2021, published 2023).

Columns and labels:
[1] = test system: RCC cells co-transplanted with macrophages; assay: Zebrafish cancer xenograft model of RCC cell dissemination (early stage of metastasis); format: in vivo; settings: macrophages treated with compound before co-transplantation with RCC cells into zebrafish embryos; vs DMSO-treated macrophages; FIGS. 14, 15
Protocol: Evaluation of in vivo mouse RCC cell dissemination (early stage of metastasis) was performed by using a validated zebrafish model.
Embryos of 48 hours post-fertilization were prepared for cell xenotransplantation and either 39 or 44 embryos were used for each treatment group. After the RCC cells were stained with 2 μg/mL DiI (Invitrogen), the villus of the embryos was removed, and then the embryos were anesthetized with 0.0016% tricaine. An injector (Picospritzer ? , Parker Hannifin, Cleveland, Ohio, USA) was used to inject 200 RCC cells into the center of egg yolk or a mixture of the RCC cells and DMSO-treated macrophages or of the RCC cells and DUSP inhibitor-treated macrophages (1:1 ratio) was injected to the center of egg yolk. The xenotransplanted embryos were transferred to a 96-well plate of 200 μL of E3 medium. The number of embryos, representing the dissemination of cancer cells from the injection site, was counted by using a fluorescence microscope (Leica DM2500 Microscope).

[2] = test system: RENCA RCC cells co-cultured with RAW264.7 macrophages; assay: Transwell invasion analysis of RENCA RCC cells co-cultured with RAW264.7 macrophages; format: cell-based, mouse; settings: compound treatment, FIGS. 11, 12, 16, 17
Protocol: RENCA mouse renal epithelial adenocarcinoma cells and RAW264.7 mouse macrophages were purchased from the Korean Cell Line Bank (Seoul, Korea). RENCA and RAW264.7 cells were maintained in Dulbecco's Modified Eagle Medium (DMEM) medium (Gibco, Thermo Fisher Scientific, Waltham, Mass., USA) supplemented with 10% FBS and 1% penicillin/streptomycin.
Cancer cell invasion analysis was performed in a 24-well transwell plate (Corning Costar, New York, N.Y., USA). A transwell having a pore size of 8 μm was coated with Type I collagen (3 μg/60 μL/well). A total of 4×10^4 bone marrow-derived macrophage (BMDM) cells were seeded in the lower chamber and differentiated into macrophages by using cancer CM. A total of 1×10^4 cancer cells were seeded into the upper transwell. After 24 or 48 hours, cancer cells that invaded into the lower chamber through the porous membrane were fixed with 3.7% formaldehyde and stained with 0.2% crystal violet. Images of the stained cells were obtained by using an optical microscope (CKX41, Olympus, Tokyo, Japan) and analyzed by using the ImageJ software program (NIH, Bethesda, Md., RRID:SCR_003070). To evaluate the effect of DUSP22 or MAPK14 knockdown, 1×10^5 RAW264.7 cells were seeded in the lower chamber and transfected with siRNA.

In the case of `O=C(O)c1ccc(N2C(=O)/C(=C/c3ccccc3)SC2=S)cc1` [BML-260], the “dissemination (early stage of metastasis) in vivo” value [1] is reported as “significantly inhibited” and the “RCC invasion induced by the co-culture with macrophages” value [2] is reported as “inhibited”.
In the case of `O=C(O)c1ccc(/C=C2\SC(=S)N(c3cccc(C(F)(F)F)c3)C2=O)cc1` [CFTRinh-172], the “RCC invasion induced by the co-culture with macrophages” value [2] is reported as “inhibited”.
